Assay results reported in patent US11116764B2, “Combination of pure 5-HT6 receptor antagonists with NMDA receptor antagonist” (SUVEN LIFE SCIENCES LIMITED, priority 2016, dated 2021).
Counter-ions that a name gives are not always drawn.

Tests used:
[1] = system: Male Wistar rats; assay: Object recognition task model; assay type: in vivo, rat; settings: choice trial T2, 24 hours after T1; compared to the vehicle treatment
Protocol: Four animals were housed in each cage. […] Water was provided ad libitum throughout the experiment. […] Rats received vehicle or test compounds or memantine or test compound and memantine, before familiar (T1) and choice (T2) trials. […] During the T1 and T2 trial, explorations of each object (defined as sniffing, licking, chewing or having moving vibrissae whilst directing the nose towards the object at a distance of less than 1 cm) were recorded using stopwatch.

[2] = system: Male Wistar rats; assay: Evaluation of acetylcholine modulation in ventral hippocampus of male Wistar rats (microdialysis); assay type: in vivo, rat; settings: memantine 1 mg/kg s.c. alone or with compound 1 3 mg/kg p.o.; combination compared to memantine alone
Source text: Evaluation of Acetylcholine Modulation in Ventral Hippocampus of Male Wistar Rats Experimental Procedure:
Male Wistar rats (240-300 g body weight) were stereotaxically implanted with a microdialysis guide cannula in ventral hippocampus (AP: −5.2 mm, ML: +5.0 mm, DV: −3.8 mm) under isoflurane anesthesia. Co-ordinates were taken according to atlas for the rat brain (Paxinos and Watson 2004) with reference points taken from bregma and vertical from the skull. The rats were allowed to recover individually for four-five days in a round bottom Plexiglas bowl with free access to feed and water.
After surgical recovery of 4-5 days, male Wistar rats were connected to dual quartz lined two-channel liquid swivel (Instech, UK) on a counter balance lever arm, which allowed unrestricted movements of the animal. […]
Acetylcholine in dialysate was quantified using LC-MS/MS method in the calibration range of 0.099 nmol/L-70.171 nmol/L.
All microdialysis data for acetylcholine was plotted as percent change from mean dialysate basal concentrations with 100% defined as the average of five pre-dose values. […] Area under the curve (AUC) values for percent change in acetylcholine levels were calculated and the statistical significance between the mean AUC value were compared against memantine treatment using one-way ANOVA followed by Dunnett's test. […]

[3] = system: Male Wistar rats; assay: Evaluation of theta modulation in dorsal hippocampus of anesthetized male Wistar rats; assay type: in vivo, rat; settings: memantine 1 mg/kg i.v. alone or 30 min after compound 1 1 mg/kg i.v.
Source text: […]. Academic Press, New York Results:

[4] = biological target: human recombinant 5-HT2A receptor (Homo sapiens (Human), UniProt P28223); assay: Determination of Ki value at 5-HT2A receptor ([3H]-Ketanserine radioligand binding); settings: [3H]-Ketanserine 1.75 nM, average of three independent experiments
Protocol: Determination of Ki Value at 5-HT2A Receptor
Compound was tested according to the following procedures.
Receptor source: Recombinant mammalian cells
Radioligand: [^3H]-Ketanserine (47.3 Ci/mmol)
Final ligand concentration—[1.75 nM]
Non-Specific Ligand: 0.1 mM 1-Naphthylpiperazine (1-NP)
Reference compound: 1-Naphthylpiperazine (1-NP)
Positive control: 1-Naphthylpiperazine (1-NP)
Incubation conditions: Reactions were carried out in 67 mM Tris-HCl (pH 7.4) for 4 hours at 37° C. The reaction was terminated by rapid vacuum filtration onto the glass fiber filters. Radioactivity trapped onto the filters was determined and compared to the control values in order to ascertain any interactions of the test compound(s) with the cloned serotonin 5-HT2A binding site. • Reference: Methods in Molecular Biology, 2002, 190, 31-49
Compounds 1, 2 and 3 bind weakly to 5-HT2A receptor when tested by the in-vitro radioligand binding technique on human recombinant 5-HT2A receptor. The Ki values tabulated below are average of three independent experiments.

CC12CC3CC(C)(C1)CC(N)(C3)C2 [memantine]
discriminative index [1]: No significant increase | change in hippocampal acetylcholine levels [2]: moderate change | change in hippocampal theta power [3]: no change

COc1ccc2c(c1)c(CN1CCN(C)CC1)cn2S(=O)(=O)c1ccc(F)cc1 [Compound 2, 1-[(4-Fluorophenyl)sulfonyl]-5-methoxy-3-[(4-methyl-1-piperazinyl)methyl]-1H-indole dihydrochloride]
Ki [4]: > 10 µM

COc1ccc2c(c1)c(CN1CCN(C)CC1)cn2S(=O)(=O)c1ccccc1Br [Compound 1, 1-[(2-Bromophenyl)sulfonyl]-5-methoxy-3-[(4-methyl-1-piperazinyl)methyl]-1H-indole dimesylate monohydrate]
Ki [4]: 2.51 ± 0.377 µM

COc1ccc2c(c1)c(CN1CCN(C)CC1)cn2S(=O)(=O)c1ccc(C(C)C)cc1 [Compound 3, 1-[(4-Isopropylphenyl)sulfonyl]-5-methoxy-3-[(4-methyl-1-piperazinyl)methyl]-1H-indole dihydrochloride]
Ki [4]: 0.926 ± 0.317 µM
